Experimental findings from patent publication US8865623B2, “Herbicidally active cyclic diones and derivatives thereof, processes for their preparation, compositions, and method of controlling weeds” (Syngenta Limited, priority 2009, dated 2014) are described below.

Common to all, as to format: in vivo
In assay [1] the test system is Alopecurus myosuroides (ALOMY). In words: Pre-emergence herbicidal activity, glasshouse pot test. The settings on record: Alopecurus myosuroides, 312 h, Rate 250 g/ha, evaluated after 13 days, read-out: Pre-emergence activity ALOMY (100=total damage to plant; 0=no damage to plant). An outline of the steps:
(§1)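 Potted plants sprayed one day after sowing (pre-emergence) or after 8 days (post-emergence) with formulation in acetone/water (50:50) containing 0.5% Tween 20. Glasshouse at 24/16 °C, 14 h light, 65% humidity; damage scored after 13 days (0 none, 100 total).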

Assay [2] has as its system Avena fatua (AVEFA). The description is as above. The settings on record: Avena fatua, 312 h, Rate 250 g/ha, evaluated after 13 days, read-out: Pre-emergence activity AVEFA (100=total damage to plant; 0=no damage to plant). An outline of the steps: as §1
For assay [3], the system named is Echinochloa crus-galli (ECHCG). Described as above. The note with it: Echinochloa crus-galli, 312 h, Rate 250 g/ha, evaluated after 13 days, read-out: Pre-emergence activity ECHCG (100=total damage to plant; 0=no damage to plant). An outline of the steps: as §1
For assay [4], the system named is Lolium perenne (LOLPE). The assay is described as above. The settings on record: Lolium perenne, 312 h, Rate 250 g/ha, evaluated after 13 days, read-out: Pre-emergence activity LOLPE (100=total damage to plant; 0=no damage to plant). The gist of the method:
as §1

Assay [5] deals with Alopecurus myosuroides (ALOMY). In words: Post-emergence herbicidal activity, glasshouse pot test. The note with it: Alopecurus myosuroides, 312 h, rate 250 g/ha, evaluated after 13 days, read-out: Post-emergence activity ALOMY (100=total damage to plant; 0=no damage to plant). The gist of the method:
as §1

The test system of assay [6] is Avena fatua (AVEFA). The assay is described as above. The note with it: Avena fatua, 312 h, rate 250 g/ha, evaluated after 13 days, read-out: Post-emergence activity AVEFA (100=total damage to plant; 0=no damage to plant). An outline of the steps:
as §1

For assay [7], the system named is Echinochloa crus-galli (ECHCG). The assay is described as above. The note with it: Echinochloa crus-galli, 312 h, rate 250 g/ha, evaluated after 13 days, read-out: Post-emergence activity ECHCG (100=total damage to plant; 0=no damage to plant). An outline of the steps:
as §1

The subject of assay [8] is Lolium perenne (LOLPE). The assay is described as above. The settings on record: Lolium perenne, 312 h, rate 250 g/ha, evaluated after 13 days, read-out: Post-emergence activity LOLPE (100=total damage to plant; 0=no damage to plant). An outline of the steps:
as §1

In the case of `CCc1ccc(Oc2ccc(Br)c(Cl)c2)cc1C1=C(O)[C@@H]2CC[C@](C)(C1=O)C2(C)C` [Example A-241], the pest or weed control at 250 g/ha in assay [1] (pre-emergence spray) amounted to 30%; in assay [2] (pre-emergence spray) it was 0%; in assay [3] (pre-emergence spray) it was 80%; in assay [4] (pre-emergence spray), 70%; in assay [5] (glasshouse), 40%; in assay [6] (glasshouse) it was 70%. Besides, the pest or weed control at 250 g/ha in assay [7] (glasshouse) was found to be 90%; in assay [8] (glasshouse), 60%.
Take `CCc1ccc(Oc2ccc(Cl)c(F)c2)cc1C1=C(O)CC(C)(C)CC1=O` [Example A-46]: the pest or weed control at 250 g/ha in assay [1] (pre-emergence spray) is 100%; in assay [2] (pre-emergence spray), 30%; in assay [3] (pre-emergence spray), 90%; in assay [4] (pre-emergence spray), 70%; in assay [5] (glasshouse) it was 80%; in assay [6] (glasshouse), 50%. Besides, the pest or weed control at 250 g/ha in assay [7] (glasshouse) worked out at 100%; in assay [8] (glasshouse), 60%.
As to `CCc1ccc(Oc2ccc(Cl)cc2F)cc1C1=C(O)CC2(CCOCC2)CC1=O` [Example A-65], the pest or weed control at 250 g/ha was determined as 70% in assay [1] (pre-emergence spray); 90% in assay [2] (pre-emergence spray); 100% in assay [3] (pre-emergence spray); 80% in assay [4] (pre-emergence spray); 90% in assay [5] (glasshouse); 90% in assay [6] (glasshouse). Moreover, the pest or weed control at 250 g/ha in assay [7] (glasshouse) was 100%; in assay [8] (glasshouse) it was 80%.
For the compound `CCc1ccc(Oc2ccc3ccccc3n2)cc1C1=C(O)[C@@H]2CC[C@](C)(C1=O)C2(C)C` [Example A-321], the pest or weed control at 250 g/ha in assay [1] (pre-emergence spray) amounted to 70%; in assay [2] (pre-emergence spray) it was 50%; in assay [3] (pre-emergence spray), 100%; in assay [4] (pre-emergence spray) it was 90%; in assay [5] (glasshouse), 90%; in assay [6] (glasshouse), 90%. In addition, the pest or weed control at 250 g/ha in assay [7] (glasshouse) was 100%; in assay [8] (glasshouse), 90%.
As for `CCc1ccc(Oc2ccc(C#N)cc2C(F)(F)F)cc1C1=C(O)C(C)(C)OC(C)(C)C1=O` [Example A-74], the pest or weed control at 250 g/ha in assay [1] (pre-emergence spray) stood at 60%; in assay [2] (pre-emergence spray) it was 90%; in assay [3] (pre-emergence spray), 100%; in assay [4] (pre-emergence spray), 100%; in assay [5] (glasshouse), 90%; in assay [6] (glasshouse), 80%. For the same compound, the pest or weed control at 250 g/ha in assay [7] (glasshouse) amounted to 100%; in assay [8] (glasshouse), 80%.
Regarding `CCc1ccc(Oc2cccc(C(F)(F)F)n2)cc1C1=C(O)C(C)(C)OC(C)(C)C1=O` [Example A-53], the pest or weed control at 250 g/ha worked out at 0% in assay [1] (pre-emergence spray); 0% in assay [2] (pre-emergence spray); 20% in assay [3] (pre-emergence spray); 40% in assay [4] (pre-emergence spray); 0% in assay [5] (glasshouse); 0% in assay [6] (glasshouse). Further, the figures for the pest or weed control at 250 g/ha in assay [7] (glasshouse) and in assay [8] (glasshouse) were 80% and 30%, respectively.
With `CCc1ccc(Oc2ccc(Br)cc2Cl)cc1C1=C(O)CC2(CCOCC2)CC1=O` [Example A-189], the pest or weed control at 250 g/ha worked out at 50% in assay [1] (pre-emergence spray); 40% in assay [2] (pre-emergence spray); 90% in assay [3] (pre-emergence spray); 60% in assay [4] (pre-emergence spray); 90% in assay [5] (glasshouse); 100% in assay [6] (glasshouse). In addition, the figures for the pest or weed control at 250 g/ha in assay [7] (glasshouse) and in assay [8] (glasshouse) were 100% and 90%, respectively.
With `CCc1ccc(Oc2ccc(C(F)(F)F)cn2)cc1C1=C(O)C(C)(C)OC(C)(C)C1=O` [Example A-34], the pest or weed control at 250 g/ha in assay [1] (pre-emergence spray), in assay [2] (pre-emergence spray), in assay [3] (pre-emergence spray), in assay [4] (pre-emergence spray), in assay [5] (glasshouse) and in assay [6] (glasshouse) was 100% in each case. Besides, the pest or weed control at 250 g/ha in assay [7] (glasshouse) and in assay [8] (glasshouse) was 100% each time.
With `CCc1ccc(Oc2ncc(Cl)cc2C(F)(F)F)cc1C1=C(O)[C@H]2CC[C@H](C2)C1=O` [Example A-346], the pest or weed control at 250 g/ha in assay [1] (pre-emergence) worked out at 100%; in assay [2] (pre-emergence) it was 90%; in assay [3] (pre-emergence), 100%; in assay [4] (pre-emergence) it was 100%; in assay [5], 70%; in assay [6], 90%. Further, the pest or weed control at 250 g/ha stood at 100% in assay [7] and 90% in assay [8].
Turning to `CCc1ccc(Oc2ccc([N+](=O)[O-])c(Cl)c2)cc1C1=C(O)CC(C)(C)CC1=O` [Example A-284], the pest or weed control at 250 g/ha worked out at 60% in assay [1] (pre-emergence spray); 0% in assay [2] (pre-emergence spray); 100% in assay [3] (pre-emergence spray); 70% in assay [4] (pre-emergence spray); 60% in assay [5] (glasshouse); 0% in assay [6] (glasshouse). Besides, the values for the pest or weed control at 250 g/ha in assay [7] (glasshouse) and in assay [8] (glasshouse) were 100% and 60%, respectively.
As to `CCc1ccc(Oc2cc(F)cc(F)c2C#N)cc1C1=C(O)C(C)(C)OC(C)(C)C1=O` [Example A-206], the pest or weed control at 250 g/ha in assay [1] (pre-emergence spray) was 0%; in assay [2] (pre-emergence spray), 0%; in assay [3] (pre-emergence spray) it was 30%; in assay [4] (pre-emergence spray), 10%; in assay [5] (glasshouse), 20%; in assay [6] (glasshouse) it was 30%. In addition, the pest or weed control at 250 g/ha in assay [7] (glasshouse) came out at 70%; in assay [8] (glasshouse), 50%.
With `CCc1ccc(Oc2ncc(C(F)(F)F)cc2C(F)(F)F)cc1C1=C(O)C(C)(C)OC(C)(C)C1=O` [Example A-148], the pest or weed control at 250 g/ha in assay [1] (pre-emergence spray) is 50%; in assay [2] (pre-emergence spray) it was 90%; in assay [3] (pre-emergence spray) it was 90%; in assay [4] (pre-emergence spray), 100%; in assay [5] (glasshouse), 90%; in assay [6] (glasshouse), 100%. In addition, the results for the pest or weed control at 250 g/ha in assay [7] (glasshouse) and in assay [8] (glasshouse) were 100% and 90%, respectively.
As to `CCc1ccc(Oc2ccc(F)cc2Cl)cc1C1=C(O)CCCC1=O` [Example A-39], the pest or weed control at 250 g/ha stood at 30% in assay [1] (pre-emergence spray); 0% in assay [2] (pre-emergence spray); 40% in assay [3] (pre-emergence spray); 30% in assay [4] (pre-emergence spray); 30% in assay [5] (glasshouse); 0% in assay [6] (glasshouse). The pest or weed control at 250 g/ha in assay [7] (glasshouse) is 70%; in assay [8] (glasshouse) it was 30%.
Turning to `CCc1ccc(Oc2ccc(C#N)c(C#N)c2)cc1C1=C(O)C(C)(C)OC(C)(C)C1=O` [Example A-77], the pest or weed control at 250 g/ha in assay [1] (pre-emergence spray) is 40%; in assay [2] (pre-emergence spray), 20%; in assay [3] (pre-emergence spray) it was 70%; in assay [4] (pre-emergence spray) it was 30%; in assay [5] (glasshouse), 60%; in assay [6] (glasshouse) it was 30%. Further, the pest or weed control at 250 g/ha amounted to 70% in assay [7] (glasshouse) and 30% in assay [8] (glasshouse).
Regarding `CCc1ccc(Oc2ccc(Cl)c(F)c2)cc1C1=C(O)[C@H]2CC[C@H](C2)C1=O` [Example A-249], the pest or weed control at 250 g/ha in assay [1] (pre-emergence spray) was determined as 60%; in assay [2] (pre-emergence spray), 60%; in assay [3] (pre-emergence spray) it was 90%; in assay [4] (pre-emergence spray) it was 90%; in assay [5] (glasshouse), 90%; in assay [6] (glasshouse), 100%. Besides, the results for the pest or weed control at 250 g/ha in assay [7] (glasshouse) and in assay [8] (glasshouse) were 100% and 70%, respectively.
